# Results published in PMC3597463 (Analytical chemistry, 2013).
# Like-named read-outs stand apart in the source and are kept apart here.
# B1: Biotin-α-bungarotoxin (peptide)
# chain: IVCHTTATSPISAVTCPPGENLCYRKMWCDAFCSSRGKVVELGCAATCPSKKPYEEVTCCSTDKCNPHPKQRPG
# Assays:
# [1] = system: Torpedo marmorata nicotinic acetylcholine receptor (nAChR); assay: nAChR/microsphere-based inhibition assay; type: binding; conditions: for IC50 expressed as level in shellfish meat: assuming 100% recoveries; for Interference with the Luminex nAChR-based assay: restated in discussion, concentration not given there
# mice [2] = conditions: cited from earlier work; for oral LD50: mice; for LD50: fed to fasted mice
# [3] = type: physicochemical; conditions: for % Recovery (toxin detected after storage versus freshly analyzed samples): 7 ng/ml, 4 weeks
# nAChR [4] = conditions: chemiluminescence assay; cited from earlier work
# nAChR [5] = conditions: fluorescence polarization assay; cited from earlier work
# [6] = system: Lymnaea stagnalis acetylcholine binding protein (Ls-AChBP); assay: Ls-AChBP/microsphere-based inhibition assay; conditions: buffer
# mice [7] = conditions: fed to fasted mice, from reported LD50
# nAChR [8] = conditions: cited from earlier work
# [9] = biological target: Torpedo marmorata nicotinic acetylcholine receptor (Torpedo marmorata) (UniProt P02711); assay: […]
# Torpedo marmorata nicotinic acetylcholine receptor (Torpedo marmorata), sequence (P02711 whole entry, looked up): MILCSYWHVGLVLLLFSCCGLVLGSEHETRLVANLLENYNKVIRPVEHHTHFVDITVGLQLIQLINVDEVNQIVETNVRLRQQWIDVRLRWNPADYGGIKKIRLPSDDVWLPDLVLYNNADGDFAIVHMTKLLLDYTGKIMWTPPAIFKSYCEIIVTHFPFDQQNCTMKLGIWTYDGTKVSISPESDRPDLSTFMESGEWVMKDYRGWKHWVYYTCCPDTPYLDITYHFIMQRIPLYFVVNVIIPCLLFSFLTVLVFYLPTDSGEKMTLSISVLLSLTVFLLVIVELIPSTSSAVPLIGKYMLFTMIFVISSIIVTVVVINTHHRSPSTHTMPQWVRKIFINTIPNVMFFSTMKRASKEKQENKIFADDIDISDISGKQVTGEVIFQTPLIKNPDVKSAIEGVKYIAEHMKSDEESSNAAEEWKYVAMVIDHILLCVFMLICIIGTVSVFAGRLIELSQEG
# [10] = biological target: Acetylcholine binding protein from Lymnaea stagnalis (Lymnaea stagnalis, UniProt P58154 20-229); assay: […]
# Acetylcholine binding protein from Lymnaea stagnalis, sequence (P58154 20-229): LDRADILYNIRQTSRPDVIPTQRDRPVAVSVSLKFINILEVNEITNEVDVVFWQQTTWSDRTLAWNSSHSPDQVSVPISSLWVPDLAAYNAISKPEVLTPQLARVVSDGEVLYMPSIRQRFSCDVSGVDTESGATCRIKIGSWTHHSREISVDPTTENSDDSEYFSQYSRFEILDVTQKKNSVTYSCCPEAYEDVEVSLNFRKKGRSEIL
molecule,measurement,setting,value
20-methyl spirolide G,Cross-reactivity (IC50 of 13-desmethyl spirolide C / IC50 of cyclic imine x 100),"[1]; nAChR assay, buffer",95%
same,oral LD50,mice [2]; administered with food,500 Wg/kg
same,oral LD50,mice [2]; by gavage,160 Wg/kg
C=C1CCCC2=NCC(C)C(C)CC23CCC(C2C=C(C)C(=O)O2)=C(C)C3/C=C(/C)C(O)CC2CCC3(CCC4(OC(CCC4(C)O)C1)O3)O2 (centres unmarked) [13-desmethyl spirolide C],% Recovery (toxin detected after storage versus freshly analyzed samples),"[3]; buffer (PBS-BT/20% EtOH), 4–8 °C",109 ± 6%
same,% Recovery (toxin detected after storage versus freshly analyzed samples),"[3]; buffer (PBS-BT/20% EtOH), −20 °C",98.1 ± 6.3%
same,% Recovery (toxin detected after storage versus freshly analyzed samples),"[3]; mussel extract, 4–8 °C",135 ± 23%
same,% Recovery (toxin detected after storage versus freshly analyzed samples),"[3]; mussel extract, −20 °C",121 ± 16%
same,% Recovery (toxin detected after storage versus freshly analyzed samples),"[3]; scallop extract, 4–8 °C",92.0 ± 9.2%
same,% Recovery (toxin detected after storage versus freshly analyzed samples),"[3]; scallop extract, −20 °C",85.5 ± 5.5%
same,% of toxin recovered after storage in mussel homogenate,"[3]; spiked mussel homogenate, two weeks, −20 °C",105.7 ± 5.3%
same,IC50,[1],10 nM
same,IC20,[1]; buffer,0.2 ± 0.04 ng/mL
same,IC50,[1]; buffer,7.4 ± 0.7 ng/mL
same,IC50,"[1]; buffer (PBS-BT/20% EtOH), n = 8",10.8 ± 0.9 nM
same,IC20,[1]; clam extract,0.3 ± 0.01 ng/mL
same,IC50,[1]; clam extract,10.3 ± 1.4 ng/mL
same,IC80,[1]; clam extract,160 ± 6 ng/mL
same,IC50 expressed as level in shellfish meat,[1]; clam extract,411.6 ± 54.8 Wg/kg
same,IC50,"[1]; clam extract, n = 2",14.9 ± 1.9 nM
same,IC20,[1]; mussel extract,0.4 ± 0.1 ng/mL
same,IC50,[1]; mussel extract,11.3 ± 1.1 ng/mL
same,IC80,[1]; mussel extract,160 ± 8 ng/mL
same,IC50 expressed as level in shellfish meat,[1]; mussel extract,451.3 ± 42.4 Wg/kg
same,IC50,"[1]; mussel extract, n = 6",16.3 ± 1.5 nM
same,Detection efficiency of 13-desmethyl spirolide C relative to gymnodimine,"[1]; nAChR assay, buffer",24 times
same,IC20,"[1]; read-out: IC20 (nM), lower end of dynamic range, buffer",0.4 ± 0.07 nM
same,IC20,"[1]; read-out: IC20 (nM), lower end of dynamic range, clam extract",0.5 ± 0.01 nM
same,IC20,"[1]; read-out: IC20 (nM), lower end of dynamic range, mussel extract",0.6 ± 0.2 nM
same,IC20,"[1]; read-out: IC20 (nM), lower end of dynamic range, scallop extract",0.5 ± 0.2 nM
same,IC80,"[1]; read-out: IC80 (nM), upper end of dynamic range, clam extract",231 ± 23 nM
same,IC80,"[1]; read-out: IC80 (nM), upper end of dynamic range, mussel extract",232 ± 11 nM
same,IC80,"[1]; read-out: IC80 (nM), upper end of dynamic range, scallop extract",201 ± 9 nM
same,IC20,[1]; scallop extract,0.4 ± 0.2 ng/mL
same,IC50,[1]; scallop extract,8.6 ± 1.5 ng/mL
same,IC80,[1]; scallop extract,139 ± 6.5 ng/mL
same,IC50 expressed as level in shellfish meat,[1]; scallop extract,344.2 ± 60.3 Wg/kg
same,IC50,"[1]; scallop extract, n = 5",12.4 ± 2.2 nM
same,IC50,nAChR [4],35 nM
same,IC50,nAChR [5],100 nM
same,LD50,mice [2],0.5 mg/kg
same,oral LD50,mice [2]; administered with food,500 Wg/kg
same,oral LD50,mice [2]; by gavage,160 Wg/kg
C/C(=C/C=C/[C@@H](C)C(=O)O)[C@H]1CN[C@H](C(=O)O)[C@H]1CC(=O)O [domoic acid],Interference with the nAChR-based assay (maximum and minimum binding signals),[1]; 10 μM,no effects on maximum and minimum binding signals
same,Interference with the Luminex nAChR-based assay,[1],do not interfere
"CC1=C[C@@H](C2=C(C)[C@@H]3/C=C(\C)[C@@H](O)CC[C@@H]4C[C@@H](C)[C@@H](O4)/C(C)=C/CCC4=NCCC[C@@]43CC2)OC1=O [gymnodimine, Gymnodimine]",Assay efficiency for gymnodimine relative to 13-desmethyl spirolide C,[6],14 fold
same,Times less toxic than 13-desmethyl spirolide C,mice [7],> 15 times
same,LD50,mice [2],> 7.5 mg/kg
C=C1[C@@H](O)[C@@H]2O[C@]3(CC[C@H](/C=C/[C@@H](C)[C@@H]4CC(C)=C[C@@]5(O[C@H](C[C@@](C)(O)C(=O)O)CC[C@H]5O)O4)O3)CC[C@H]2O[C@@H]1[C@@H](O)C[C@H](C)[C@H]1O[C@@]2(CCCCO2)CC[C@H]1C [okadaic acid],Interference with the nAChR-based assay (maximum and minimum binding signals),[1]; 10 μM,no effects on maximum and minimum binding signals
same,Interference with the Luminex nAChR-based assay,[1],do not interfere
same,Interference with nAChR based assays,nAChR [8]; previous studies,not shown any interferences
C=CCC(=C)/C=C/[C@@](C)(O)[C@H]1O[C@@H]2C[C@@H]3O[C@@H]4C[C@@H]5O[C@@H]6C[C@@H]7O[C@@H]8C[C@@H]9O[C@@H]%10C[C@@H]%11O[C@](C)(CCOS(=O)(=O)O)[C@@H](OS(=O)(=O)O)C[C@H]%11O[C@H]%10C[C@H]9O[C@H]8CC[C@@]7(C)O[C@@]6(C)CC[C@H](C)[C@H]5O[C@H]4C[C@@]3(C)O[C@H]2CC1=C [yessotoxin],Interference with the nAChR-based assay (maximum and minimum binding signals),[1]; 5 μM,no effects on maximum and minimum binding signals
same,Interference with the Luminex nAChR-based assay,[1],do not interfere
same,Interference with nAChR based assays,nAChR [8]; previous studies,not shown any interferences
Biotin-α-bungarotoxin (peptide),maximum binding signal to background ratio,[9],500
azaspiracid-2,Interference with nAChR based assays,nAChR [8]; previous studies,not shown any interferences
azaspirazid-1,Interference with the nAChR-based assay (maximum and minimum binding signals),[1]; 1 μM,no effects on maximum and minimum binding signals
same,Interference with the Luminex nAChR-based assay,[1],do not interfere
brevetoxin-2,Interference with nAChR based assays,nAChR [8],not shown any interferences
B1,maximum binding signal to background ratio,[10],~2000
